Results on nine molecules are retold here after ChEMBL document CHEMBL1144300, “Tellurium-based cysteine protease inhibitors: evaluation of novel organotellurium(IV) compounds as inhibitors of human cathepsin B” (Bioorg Med Chem Lett, 2005).

The experiment concerns the target Cathepsin B (Homo sapiens) (UniProt P07858). The experiment in a line: Second-order rate constant for inactivation of human cathepsin B.

Structures are written as SMILES.

In the case of `COc1ccc([Te]2(Cl)OC3(CCCCCC3)/C2=C\Cl)cc1` (centres undefined), the K2 is 1600 M⁻¹ s⁻¹. `COc1ccc([Te]2(Cl)OC3(CCCCC3)/C2=C\Br)cc1` (centres undefined): the K2 came out at 7700 M⁻¹ s⁻¹. For the molecule `COc1ccc([Te](Cl)(Cl)/C(=C/Cl)C(C)(C)O)cc1`, the K2 was determined as 11000 M⁻¹ s⁻¹. In the case of `COc1ccc([Te]2(Cl)OC3(CCCCC3)/C2=C\Cl)cc1` (centres undefined), the K2 amounted to 36000 M⁻¹ s⁻¹. The molecule `CC[N+](CC)(CC)Cc1ccccc1.ClC1=C[Te](Cl)(Cl)OC1` came in with a K2 of 6000 M⁻¹ s⁻¹. In turn, `Cl[Te]1(Cl)OCCO1` displayed a K2 of 0.037 M⁻¹ s⁻¹. Molecule `COc1ccccc1C(=O)/C=C(/c1ccccc1OC)[Te](Cl)(Cl)Cl` showed a K2 of 15000 M⁻¹ s⁻¹. For `OC(C/C(=C\Cl)[Te](Cl)(Cl)Cl)c1ccccc1` (centres undefined), the K2 was found to be 12000 M⁻¹ s⁻¹. For `COc1ccc([Te](Cl)(Cl)/C=C(\Cl)c2ccccc2)cc1` the value was 7900 M⁻¹ s⁻¹.
